# In patent US20120116095A1, “GLYCINE TRANSPORTER INHIBITORS” (TAISHO PHARMACEUTICAL C0., LTD., priority 2009, published 2012):
# Target: T1, P-glycoprotein (P-gp) (Homo sapiens, UniProt P08183)
# T1 construct: expressed in transfected cells; host or cells: LLC-GA5-COL300 (pig kidney LLC-PK1 cells expressing human MDR1)
# Experiment: Test for substrate recognition by P-gp (LLC-GA5-COL300 cells)
# Format: in vitro ADME
# Settings: 10 μM, Human MDR1-expressing LLC-GA5-COL300 cells, Apical to Basolateral and Basolateral to Apical
# Source text: In the case of drugs that act on the central nervous system, it is generally important for such drugs to be transferred from blood into brain for development of their efficacy. In the blood-brain barrier, there is found P-glycoprotein (P-gp), which is a typical member of the efflux transporters that control drug penetration; and P-gp inhibits the penetration of its substrate drugs into the brain. Thus, in developing a drug, recognition performance as a P-gp substrate can be used as an indicator of brain penetration.
# A test for substrate recognition by P-gp was conducted as described in J. Pharmacol. Exp. Ther. (1992) Vol. 263, No. 2, 840-845 and J. Biol. Chem. (1992) Vol. 267, No. 34, 24248-24252. Specifically, LLC-GA5-COL300 cells (i.e., a Human MDR1-expressing system originating from a pig kidney-derived cultured renal epithelial cell line, LLC-PK1) were used after being cultured for 4 days on trans wells, and the medium in each well was replaced by Hank's balanced salt solution (HBSS) immediately before use in the test. After a test compound solution (i.e., a DMSO solution of a test compound, which was further diluted with HBSS and adjusted to a final concentration of 10 μM) was added to the Donor side of the LLC-GA5-COL300 cells, aliquots of HBSS were sampled over time from the Acceptor side to determine the test compound concentration in each collected sample by LC-MS/MS.
# The membrane permeability coefficient (×10^−6 cm/sec) was calculated by the accumulated amount of the compound into the Acceptor side for both directions, Apical to Basolateral and Basolateral to Apical. and the ratio of these coefficients (Efflux Ratio) was then used to evaluate substrate recognition by P-gp.
# T1 sequence (P08183 whole entry): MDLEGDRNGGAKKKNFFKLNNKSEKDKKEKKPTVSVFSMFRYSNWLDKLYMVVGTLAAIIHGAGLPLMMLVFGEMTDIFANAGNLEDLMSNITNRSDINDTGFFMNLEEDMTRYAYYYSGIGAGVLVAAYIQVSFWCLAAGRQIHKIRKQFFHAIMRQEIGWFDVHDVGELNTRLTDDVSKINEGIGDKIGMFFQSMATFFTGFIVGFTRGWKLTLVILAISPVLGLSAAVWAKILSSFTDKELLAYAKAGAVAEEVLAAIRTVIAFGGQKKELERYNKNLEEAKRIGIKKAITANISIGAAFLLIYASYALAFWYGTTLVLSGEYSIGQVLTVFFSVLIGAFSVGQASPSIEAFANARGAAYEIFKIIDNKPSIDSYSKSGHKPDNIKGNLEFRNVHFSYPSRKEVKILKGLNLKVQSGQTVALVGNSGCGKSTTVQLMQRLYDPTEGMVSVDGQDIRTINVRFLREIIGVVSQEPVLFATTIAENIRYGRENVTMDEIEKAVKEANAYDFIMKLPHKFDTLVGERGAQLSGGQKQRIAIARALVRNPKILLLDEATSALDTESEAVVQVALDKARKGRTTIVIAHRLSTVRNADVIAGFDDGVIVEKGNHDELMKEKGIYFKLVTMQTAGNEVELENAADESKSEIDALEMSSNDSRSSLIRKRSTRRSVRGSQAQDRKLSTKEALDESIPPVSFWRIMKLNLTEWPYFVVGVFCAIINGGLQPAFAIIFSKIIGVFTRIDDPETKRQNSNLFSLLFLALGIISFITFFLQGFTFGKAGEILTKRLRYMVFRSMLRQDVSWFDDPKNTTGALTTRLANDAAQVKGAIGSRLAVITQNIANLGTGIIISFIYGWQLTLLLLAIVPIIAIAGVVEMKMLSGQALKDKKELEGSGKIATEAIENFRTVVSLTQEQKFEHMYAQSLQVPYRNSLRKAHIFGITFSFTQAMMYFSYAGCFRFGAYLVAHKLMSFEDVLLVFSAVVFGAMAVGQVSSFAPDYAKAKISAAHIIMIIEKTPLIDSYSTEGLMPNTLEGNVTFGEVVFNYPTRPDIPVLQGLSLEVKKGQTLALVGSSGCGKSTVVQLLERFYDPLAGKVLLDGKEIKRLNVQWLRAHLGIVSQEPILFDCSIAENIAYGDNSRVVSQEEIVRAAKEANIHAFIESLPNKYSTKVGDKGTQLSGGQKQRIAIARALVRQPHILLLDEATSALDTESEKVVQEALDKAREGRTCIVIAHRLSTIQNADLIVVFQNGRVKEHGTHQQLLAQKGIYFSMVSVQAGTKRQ
row,recognition as a P-gp substrate (Efflux Ratio criteria),SMILES
1,not to be recognized as a P-gp substrate,CC(C)N(Cc1ccc(F)c(-c2cccc(F)c2)c1)C(=O)c1cn(C)cn1 [Compound 20]
2,not to be recognized as a P-gp substrate,CC(C)N(Cc1ccc(F)c(-c2cc(F)c(F)c(F)c2)c1)C(=O)c1cn(C)cn1 [Compound 36]
3,not to be recognized as a P-gp substrate,CC(C)N(Cc1ccc(F)c(-c2ccc(F)c(F)c2)c1)C(=O)c1cn(C)cn1 [Compound 17]
4,not to be recognized as a P-gp substrate,CC(C)N(Cc1ccc(F)c(-c2ccc(OC(F)(F)F)cc2)c1)C(=O)c1c[nH]cn1 [Compound 54]
5,not to be recognized as a P-gp substrate,COc1cccc(-c2cc(CN(C(=O)c3cn(C)cn3)C(C)C)ccc2F)c1 [Compound 24]
6,not to be recognized as a P-gp substrate,CC(C)N(Cc1ccc(F)c(-c2ccccc2)c1)C(=O)c1cn(C)cn1 [Compound 22]
7,not to be recognized as a P-gp substrate,CC(C)N(Cc1ccc(F)c(-c2ccc(F)cc2)c1)C(=O)c1cn(C)cn1 [Compound 18]

# Target: T2, human type 1 glycine transporter (GlyT1) (Homo sapiens, UniProt P48067)
# T2 construct: Glioma T98G cells endogenously expressing human type 1 glycine transporter (GlyT1) were used; endogenous in cells; host or cells: T98G human glioma cells
# T2 sequence (P48067 1-706): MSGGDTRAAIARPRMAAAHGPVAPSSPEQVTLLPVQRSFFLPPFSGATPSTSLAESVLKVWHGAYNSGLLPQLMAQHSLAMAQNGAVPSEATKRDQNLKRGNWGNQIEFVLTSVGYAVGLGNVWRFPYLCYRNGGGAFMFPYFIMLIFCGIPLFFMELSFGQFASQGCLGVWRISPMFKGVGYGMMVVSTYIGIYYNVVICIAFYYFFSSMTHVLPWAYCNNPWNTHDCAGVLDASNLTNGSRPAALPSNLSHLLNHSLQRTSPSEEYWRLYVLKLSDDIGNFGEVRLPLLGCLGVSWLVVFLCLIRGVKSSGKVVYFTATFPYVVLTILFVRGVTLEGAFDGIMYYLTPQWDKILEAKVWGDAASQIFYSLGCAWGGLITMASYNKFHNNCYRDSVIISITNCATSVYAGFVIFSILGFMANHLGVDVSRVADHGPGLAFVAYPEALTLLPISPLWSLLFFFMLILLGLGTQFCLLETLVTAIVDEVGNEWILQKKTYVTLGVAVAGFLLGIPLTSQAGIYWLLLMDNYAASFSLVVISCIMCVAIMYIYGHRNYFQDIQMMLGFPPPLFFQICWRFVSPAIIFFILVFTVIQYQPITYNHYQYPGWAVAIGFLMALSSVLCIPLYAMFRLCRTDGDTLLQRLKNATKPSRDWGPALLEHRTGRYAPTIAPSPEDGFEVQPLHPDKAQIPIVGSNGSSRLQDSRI
# Experiment: Glycine uptake inhibition experiment ([3H]glycine uptake in T98G cells)
# Format: cell-based
# Settings: [3H]glycine 250 nM, 15 min, room temperature, read-out: glycine uptake inhibitory activity (IC50 value)
# Description: A glycine uptake experiment was conducted as described in Neuron, 8, 927-935, 1992. Glioma T98G cells endogenously expressing human type 1 glycine transporter (GlyT1) were used. T98G cells were seeded in a 96-well plate at 2.0×10^4 cells/well and cultured overnight in a CO2 incubator. A test compound was dissolved in a 100% DMSO solution and then dissolved in 10 mM HEPES buffer (pH 7.4) containing 150 mM sodium chloride, 1 mM calcium chloride, 5 mM potassium chloride, 1 mM magnesium chloride, 10 mM glucose and 0.2% bovine serum albumin. After removing the cell culture medium, the cells were pre-treated with the test compound for 10 minutes. Subsequently, the test compound and [^3H]glycine (final concentration: 250 nM) were added to the cells and incubated at room temperature for 15 minutes. After the incubation, the extracellular solution was aspirated with a manifold to remove the excess labeled glycine existing outside the cells, and the cells were then lysed with 0.5 M aqueous sodium hydroxide. The amount of glycine uptake was determined by measuring radioactivity in the cell lysate using a liquid scintillation counter. Glycine uptake in the presence of 10 μM ALX5407 was defined as non-specific uptake, and the value calculated by subtracting this non-specific uptake from the total uptake in the absence of 10 μM ALX5407 was defined as specific uptake. Moreover, an inhibition curve was obtained for each test compound at concentrations of […] to calculate the glycine uptake inhibitory activity (IC50 value) of each test substance.
# It should be noted that ALX5407 is a HCl salt of N-[(3R)-3-([1,1′-biphenyl]-4-yloxy)-3-(4-fluorophenyl)propyl]-N-methylglycine.
row,IC50 [nM],SMILES
1,7.19,CC(C)N(Cc1ccc(F)c(-c2cccc(F)c2)c1)C(=O)c1cn(C)cn1 [Compound 20]
2,48.5,CC(C)N(Cc1ccc(F)c(-c2cc(F)cc(C#N)c2)c1)C(=O)c1cn(C)cn1 [Compound 39]
3,40,CC(C)N(Cc1ccc(F)c(-c2ccc(Cl)cc2)c1)C(=O)c1cn(C)cn1 [Compound 26]
4,11,Cn1cnc(C(=O)N(Cc2ccc(F)c(-c3cccc(CO)c3)c2)C2CCCCC2)c1 [Compound 8]
5,38.2,CC(C)N(Cc1ccc(F)c(-c2cc(F)c(F)c(F)c2)c1)C(=O)c1cn(C)cn1 [Compound 36]
6,21.4,CC(C)N(Cc1ccc(F)c(-c2ccccc2F)c1)C(=O)c1cn(C)cn1 [Compound 23]
7,18.6,COc1ccc(-c2cc(CN(C(=O)c3cn(C)cn3)C(C)C)ccc2F)cc1F [Compound 19]
8,48.3,CCn1cnc(C(=O)N(Cc2ccc(F)c(-c3cc(F)c(F)c(F)c3)c2)C(C)C)c1 [Compound 42]
9,13.6,CCOc1cccc(-c2cc(CN(C(=O)c3cn(C)cn3)C(C)C)ccc2F)c1 [Compound 21]
10,48.9,CC(C)N(Cc1ccc(F)c(-c2ccc(OC(F)F)cc2)c1)C(=O)c1cn(C)cn1 [Compound 35]
11,21.4,CC(C)N(Cc1ccc(F)c(-c2cccc(OC(F)(F)F)c2)c1)C(=O)c1cn(C)cn1 [Compound 15]
12,41.5,COCCN(Cc1ccc(F)c(-c2ccc(OC(F)(F)F)cc2)c1)C(=O)c1cn(C)cn1 [Compound 16]
13,4.33,"Cn1cnc(C(=O)N(Cc2ccc(F)c(-c3cccc(CO)c3)c2)C2CCC2)c1 [Compound 13, N-Cyclobutyl-N-{[6-fluoro-3′-(hydroxymethyl)biphenyl-3-yl]methyl}-1-methyl-1H-imidazole-4-carboxamide]"
14,2.78,Cn1cnc(C(=O)N(Cc2ccc(F)c(-c3cccc(CO)c3)c2)C2CCCC2)c1 [Compound 14]
15,18.8,CC(C)N(Cc1ccc(F)c(-c2ccc(F)c(F)c2)c1)C(=O)c1cn(C)cn1 [Compound 17]
16,30.7,CC(CO)N(Cc1ccc(F)c(-c2ccc(OC(F)(F)F)cc2)c1)C(=O)c1cn(C)cn1 (stereo not drawn) [Compound 52]
17,35.1,CCC(CC)N(Cc1ccc(F)c(-c2cccc(CO)c2)c1)C(=O)c1cn(C)cn1 [Compound 11]
18,14.6,Cn1cnc(C(=O)N(Cc2ccc(F)c(-c3cccc(CO)c3)c2)C2CCCCC2)n1 [Compound 6]
19,14.2,COc1cccc(-c2cc(CN(C(=O)c3cn(C)cn3)C(C)C)ccc2F)c1 [Compound 24]
20,11.6,CC(C)N(Cc1ccc(F)c(-c2ccccc2)c1)C(=O)c1cn(C)cn1 [Compound 22]
21,21,Cn1cnc(C(=O)N(Cc2ccc(F)c(-c3ccc(F)c(F)c3)c2)C2CCCC2)c1 [Compound 31]
22,25.9,CC(C)N(Cc1ccc(F)c(-c2cccc(CO)c2)c1)C(=O)c1cn(C)cn1 [Compound 7]
23,8.89,CC(C)N(Cc1ccc(F)c(-c2ccc(F)cc2)c1)C(=O)c1cn(C)cn1 [Compound 18]
24,25.4,COc1ccc(-c2cc(CN(C(=O)c3cn(C)cn3)C(C)C)ccc2F)cc1 [Compound 25]
25,35.9,"CCn1cnc(C(=O)N(Cc2ccc(F)c(-c3ccc(OC(F)(F)F)cc3)c2)C(C)C)c1 [Compound 40, 1-Ethyl-N-{[6-fluoro-4′-(trifluoromethoxy)biphenyl-3-yl]methyl}-N-(propan-2-yl)-1H-imidazole-4-carboxamide]"
26,49.4,CC(C)N(Cc1ccc(F)c(-c2cccc(OC(F)F)c2)c1)C(=O)c1cn(C)cn1 [Compound 34]
27,22.6,CC(C)N(Cc1ccc(F)c(-c2cc(F)cc(F)c2)c1)C(=O)c1cn(C)cn1 [Compound 28]
28,12.6,COC(=O)c1cccc(-c2cc(CN(C(=O)c3ncn(C)n3)C3CCCCC3)ccc2F)c1 [Compound 2]

# Same assay, conditions: [3H]glycine 250 nM, 15 min, room temperature, read-out: glycine uptake inhibitory activity (IC50 value), bounds
row,IC50 [nM],SMILES
1,> 1000,COc1ccc(CN(C(=O)c2cn(C)cn2)C(C)C)cc1-c1ccc(F)cc1 [Compound 43]
2,> 1000,Cc1ccc(CN(C(=O)c2cn(C)cn2)C(C)C)cc1-c1ccc(F)cc1 [Compound 47]
3,≥ 100,CC(C)N(Cc1ccc(F)c(-c2ccc(C(F)(F)F)cc2)c1)C(=O)c1cn(C)cn1 [Compound 30]
4,≥ 100,"C=C(C)N(Cc1ccc(F)c(-c2ccc(OC(F)(F)F)cc2)c1)C(=O)c1cn(C)cn1 [Compound 53, N-{[6-Fluoro-4′-(trifluoromethoxy)biphenyl-3-yl]methyl}-1-methyl-N-(prop-1-en-2-yl)-1H-imidazole-4-carboxamide]"
5,≥ 100,CC(C)N(Cc1ccc(F)c(-c2cccc(CO)c2)c1)C(=O)c1ncn(C)n1 [Compound 5]
6,≥ 100,CC(C)N(Cc1ccc(F)c(-c2ccc(C#N)cc2F)c1)C(=O)c1cn(C)cn1 [Compound 37]
7,≥ 100,CC(C)N(Cc1ccc(F)c(-c2cccc(OC(F)(F)F)c2)c1)C(=O)c1ncn(C)n1 [Compound 3]
8,> 1000,CC(C)N(Cc1ccc(F)c(-c2cc(F)c(F)c(F)c2)c1)C(=O)c1c[nH]cn1 [Compound 41]
9,≥ 100,CC(C)N(Cc1ccc(F)c(-c2ccc(OC(F)(F)F)cc2)c1)C(=O)c1ncn(C)n1 [Compound 4]
10,> 1000,CC(C)N(Cc1cc(-c2ccc(F)cc2)cc(C(F)(F)F)c1)C(=O)c1cn(C)cn1 [Compound 49]
11,> 1000,CC(C)N(Cc1ccc(F)c(-c2ccc(OC(F)(F)F)cc2)c1)C(=O)c1c[nH]cn1 [Compound 54]
12,> 1000,Cc1ccc(CN(C(=O)c2cn(C)cn2)C(C)C)cc1-c1ccc(OC(F)(F)F)cc1 [Compound 46]
13,> 1000,CC(C)N(Cc1cc(-c2ccc(OC(F)(F)F)cc2)cc(C(F)(F)F)c1)C(=O)c1cn(C)cn1 [Compound 48]
14,≥ 100,CC(C)N(Cc1ccc(Cl)c(-c2ccc(F)cc2)c1)C(=O)c1cn(C)cn1 [Compound 51]
15,> 1000,CC(C)N(Cc1cc(OC(F)(F)F)cc(-c2ccc(F)cc2)c1)C(=O)c1cn(C)cn1 [Compound 50]
16,≥ 100,CC(C)CN(Cc1ccc(F)c(-c2ccc(F)c(F)c2)c1)C(=O)c1cn(C)cn1 [Compound 32]
